In patent US10213415B2, “Compounds as opioid receptor modulators” (JANSSEN PHARMACEUTICA NV, priority 2004, dated 2019):
Several values for one entry are separate records, joined by “and”; a condition that tells them apart may be missing. Equal entries are not always repeated. Where two headings read alike, the source gives them in different places.

Assays:
delta opioid receptor = target: T1, delta opioid receptor (Rattus norvegicus, UniProt P33533); experiment: Rat Brain Delta Opioid Receptor Binding Assay ([3H]DPDPE); conditions: rat forebrain membranes, margin of error 10-20%
T1 construct: from tissue; host or cells: forebrain of male Wistar rats
T1 sequence (P33533 whole entry): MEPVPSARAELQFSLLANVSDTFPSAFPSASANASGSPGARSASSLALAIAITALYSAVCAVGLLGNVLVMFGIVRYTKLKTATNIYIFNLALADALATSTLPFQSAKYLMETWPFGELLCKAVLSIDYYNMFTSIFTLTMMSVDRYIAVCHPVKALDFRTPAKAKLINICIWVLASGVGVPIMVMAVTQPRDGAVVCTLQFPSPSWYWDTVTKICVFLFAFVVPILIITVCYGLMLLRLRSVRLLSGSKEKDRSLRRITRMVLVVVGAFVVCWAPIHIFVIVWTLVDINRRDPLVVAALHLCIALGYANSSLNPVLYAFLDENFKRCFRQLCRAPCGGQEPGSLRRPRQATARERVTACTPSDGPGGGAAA
How it was run: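 Rat (male Wistar) forebrain membranes in 50 mM Tris-HCl pH 7.4 with 5 mM MgCl2, incubated with ~4 nM [3H]DPDPE for 2.5 h at 25 °C. Bound ligand collected by filtration and scintillation counting. Single-concentration data given as % inhibition of specific binding; concentration series fitted to Ki.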

[1] = target: T2, mu opioid receptor (CHO-hMOR cell membranes) (Homo sapiens, UniProt P35372); experiment: Mu Opioid Receptor Functional Assay: [35S]GTPγS Binding in CHO-hMOR Cell Membranes, Versions 1 and 2; assay type: biochemical; conditions: for MOR GTP binding assay_v2 (% I): version 2, % inhibition of agonist-stimulated GTPγS binding; for EC50: version 2, read-out: MOR GTP binding assay v2 EC50; for MOR GTP binding assay_v1 (% I): version 1, % inhibition of agonist-stimulated GTPγS binding; for MOR GTP assay_v1 % of Basal: version 1, basal binding = 100%
T2 construct: purchased Receptor Biology, Inc. (Baltimore, Md.); host or cells: CHO cells (recombinant expression)
T2 sequence (P35372 whole entry): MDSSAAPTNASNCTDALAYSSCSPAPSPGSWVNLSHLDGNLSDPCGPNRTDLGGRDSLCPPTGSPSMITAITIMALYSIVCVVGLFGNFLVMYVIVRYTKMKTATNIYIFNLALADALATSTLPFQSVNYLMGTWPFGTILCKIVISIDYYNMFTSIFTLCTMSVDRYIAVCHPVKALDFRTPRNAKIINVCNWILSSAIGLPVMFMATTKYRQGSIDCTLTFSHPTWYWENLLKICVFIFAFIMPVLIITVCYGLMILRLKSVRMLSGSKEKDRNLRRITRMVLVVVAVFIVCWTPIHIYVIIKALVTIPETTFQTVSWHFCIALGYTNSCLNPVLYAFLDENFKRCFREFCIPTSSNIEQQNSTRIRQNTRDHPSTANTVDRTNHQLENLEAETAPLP
How it was run: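 Agonist-stimulated [35S]GTPγS (0.5 nM) binding measured by SPA in human MOR CHO membranes, buffer pH 7.6 with 100 mM NaCl, 5 mM MgCl2. Antagonist mode: % inhibition of stimulation by 1 μM SNC80; agonist mode: EC50 fitted. Basal binding without agonist, non-specific with 10 μM cold GTPγS.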

human mu opioid receptor = target: T3, human mu opioid receptor (Homo sapiens, UniProt P35372); experiment: Human Mu Opioid Receptor Binding Assay (CHO membranes, 3H-Damgo)
T3 construct: purchased Perkin Elmer RBHOMM400UA; host or cells: Chinese Hamster Ovary cells (recombinant expression)
T3 sequence (P35372 whole entry): as above
How it was run: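 Radioligand displacement of ³H-Damgo (diluted to 3.6 nM pre-mix) from recombinant human mu receptor in CHO membranes, 2 h, room temperature, 50 mM Tris pH 7.5 with 5 mM MgCl2. Bound label read by filtration and scintillation counting; 1 μM unlabelled Damgo defines nonspecific binding.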

Compound | Ki (delta opioid receptor; read-out: r Ki δ) | MOR GTP binding assay_v2 (% I) [1] [%] | EC50 [1] [nM] | Ki (human mu opioid receptor; read-out: hKi μ) | MOR GTP binding assay_v1 (% I) [1] [%] | MOR GTP assay_v1 % of Basal [1] [%] | Ki (delta opioid receptor; r Ki δ) [nM] | Ki (human mu opioid receptor; hKi μ) [nM]
Cc1cc(C(N)=O)cc(C)c1C[C@H](N)C(=O)N(Cc1cccc(C(=O)O)c1)[C@@H](C)c1nc(-c2ccccc2)c[nH]1 [Cpd 227] | 0.08 nM and 0.46 nM | 36.00 | 60.8 | 1.92 nM | – | – | – | –
COc1ccc(CN(C(=O)[C@@H](N)Cc2c(C)cc(C(N)=O)cc2C)[C@@H](C)c2nc(-c3ccccc3)c[nH]2)cc1-c1nnn[nH]1 [Cpd 8] | 0.43 nM and 0.15 nM | 13.95 | 1.2 | 2.5 nM and 4.4 nM | – | – | – | –
CC(C)N(Cc1nc(-c2ccccc2)c[nH]1)C(=O)[C@@H](N)Cc1ccc(O)cc1 [Cpd 195] | 306 nM | – | – | 9.8 nM | 34.00 | 378.00 | – | –
COc1ccc(CN(C(=O)[C@@H](N)Cc2c(C)cc(C(N)=O)cc2C)[C@@H](C)c2nc(-c3ccccc3)c[nH]2)cc1C(=O)O [Cpd 18] | – | 7.54 | 1 | – | – | – | 0.38 to 14.4 | 1.7
Cc1cc(O)cc(C)c1C[C@H](N)C(=O)N(Cc1nc(-c2ccccc2)c[nH]1)C1CCCCC1 [Cpd 190] | 13.8 nM | – | – | – | 70.00 | – | – | –
Cc1cc(C(N)=O)cc(C)c1C[C@H](N)C(=O)N(Cc1ccccc1)[C@@H](C)c1nc(-c2ccccc2)c[nH]1 [Cpd 114] | 12 nM | – | – | 1.39 nM | 13.20 | 717.59 | – | –
Cc1cc(O)cc(C)c1C[C@H](N)C(=O)N(Cc1nc(-c2ccc(F)cc2)c(C)[nH]1)C(C)C [Cpd 163] | 4.51 nM | – | – | 0.67 nM | 1.00 | – | – | –
COc1ccc(CN(C(=O)[C@@H](N)Cc2c(C)cc(O)cc2C)[C@@H](C)c2nc(-c3ccccc3)c[nH]2)cc1C(=O)O [Cpd 260] | 0.13 nM | 2.89 | 1.5 | 0.58 nM | – | – | – | –
COc1ccc(CN(Cc2nc(-c3ccccc3)c[nH]2)C(=O)[C@@H](N)Cc2ccc(C(N)=O)cc2)cc1C(=O)O [Cpd 5] | 630 nM and 183 nM | 7.87 | 71 | 3.9 nM | – | – | – | –
Cc1cc(O)cc(C)c1C[C@H](N)C(=O)N(Cc1nc(-c2ccccc2)c[nH]1)CC1CC1 [Cpd 192] | 7.64 nM | – | – | 0.62 nM | 30.00 | 383.00 | – | –
CC(C)N(C(=O)[C@@H](N)Cc1ccc(O)cc1)[C@@H](C)c1nc(-c2ccccc2)c[nH]1 [Cpd 225] | 112 nM | – | – | 1.4 nM | 1.00 | 657.00 | – | –
CCN(C(=O)[C@@H](N)Cc1ccc(O)cc1)[C@@H](C)c1nc(-c2ccccc2)c[nH]1 [Cpd 215] | 126 nM | – | – | 1.5 nM | 1.00 | 606.00 | – | –
COC(=O)c1ccc(CN(C(=O)[C@@H](N)Cc2ccc(C(N)=O)cc2)[C@@H](C)c2nc(-c3ccccc3)c[nH]2)o1 [Cpd 303] | – | 1.00 | 30 | 3.8 nM | – | – | – | –
COc1ccc(CN(C(=O)[C@@H](N)Cc2c(C)cc(C(N)=O)cc2C)[C@@H](C)c2nc(-c3ccccc3)c[nH]2)cc1OC [Cpd 75] | 0.66 nM | – | – | 2.6 nM | – | – | – | –
Cc1cc(O)cc(C)c1C[C@H](N)C(=O)N(Cc1cccc(C(=O)O)c1)[C@@H](C)c1nc(-c2ccccc2)c[nH]1 [Cpd 48] | – | 24.53 | 2.2 | 0.4 nM | – | – | – | –
COc1ccc(CN(C(=O)[C@@H](N)Cc2ccc(C(N)=O)cc2)[C@@H](C)c2nc(-c3ccccc3)c[nH]2)cc1C(=O)O [Cpd 4] | 11 nM and 17 nM | – | – | 5.5 nM | – | – | – | –
Cc1cc(O)cc(C)c1C[C@H](N)C(=O)N(C)[C@H](C)c1nc(-c2ccccc2)c[nH]1 [Cpd 206] | 5.8 nM | – | – | – | 1.00 | 446.00 | – | –
Cc1cc(O)cc(C)c1C[C@H](N)C(=O)N(Cc1nc(-c2ccccc2)c(C)[nH]1)C(C)C [Cpd 166] | 5.58 nM and 12 nM | – | – | 0.39 nM and 0.5 nM | 1.00 | – | – | –
C[C@H](c1nc(-c2ccccc2)c[nH]1)N(C)C(=O)[C@@H](N)Cc1ccc(C(N)=O)cc1 [Cpd 203] | 49.3 nM | – | – | 13.7 nM | 20.00 | 331.00 | – | –
